Laboratory results from doi:10.1101/735704v2, “Selectivity filter instability dominates the low intrinsic activity of the TWIK-1 K2P K^+ Channel” (biorxiv, 2019).

Biological target: T1, TWIK-1* (K2P1.1/KCNK1, I293A/I294A trafficking mutant) (Homo sapiens, UniProt O00180, I293A/I294A)
T1 construct: full-length channel with mutated di-isoleucine endocytic retention motif (I293A/I294A), subcloned into pFAW, mRNA-injected Xenopus oocytes, giant excised inside-out patches; homodimer
T1 sequence (O00180 1-336 I293A/I294A): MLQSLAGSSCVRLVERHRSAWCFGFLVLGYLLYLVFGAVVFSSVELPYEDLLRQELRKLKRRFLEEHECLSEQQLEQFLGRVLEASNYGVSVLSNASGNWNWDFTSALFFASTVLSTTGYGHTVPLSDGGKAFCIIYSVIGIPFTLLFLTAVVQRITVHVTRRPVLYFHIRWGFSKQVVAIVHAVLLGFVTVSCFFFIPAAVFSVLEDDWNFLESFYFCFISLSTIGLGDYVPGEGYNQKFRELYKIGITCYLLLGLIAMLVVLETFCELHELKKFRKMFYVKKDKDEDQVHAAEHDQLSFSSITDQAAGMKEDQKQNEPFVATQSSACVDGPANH
Assay: giant excised inside-out patch electrophysiology, Xenopus oocytes, Hill fit
Assay type: cell-based

IC50: 3.3 ± 0.1 µM
SMILES: CCCCC[N+](CCCCC)(CCCCC)CCCCC [tetrapentylammonium]
